Test results reported in ChEMBL document CHEMBL1833882, “Preparation and antibacterial evaluation of decarboxylated fluoroquinolones” (2011).
Converted amounts (≈) assume the structure as drawn.

What was measured:
Format in all cases: functional
Acinetobacter baumannii = test: Antibacterial activity against Acinetobacter baumannii ATCC 19606 after 18 hrs by broth dilution method; conditions: ATCC 19606 = CIP 70.34 = JCM 6841, 18 h
Pseudomonas aeruginosa [1] = test: Antibacterial activity against Pseudomonas aeruginosa PAO1 harboring oprM deltamexAB after 18 hrs by broth dilution method; conditions: PAO1, 18 h
[2] = tested on: Stenotrophomonas maltophilia; test: Antibacterial activity against Stenotrophomonas maltophilia ATCC 13637 after 18 hrs by broth dilution method; conditions: ATCC 13637, 18 h
Burkholderia cepacia [3] = test: Antibacterial activity against Burkholderia cepacia ATCC 55792 after 18 hrs by broth dilution method; conditions: ATCC 55792, 18 h
Klebsiella pneumoniae [4] = test: Antibacterial activity against Klebsiella pneumoniae ATCC 700603 after 18 hrs by broth dilution method; conditions: ATCC 700603, 18 h
Staphylococcus aureus [5] = test: Antibacterial activity against methicillin-resistant Staphylococcus aureus 1094 after 18 hrs by broth dilution method; conditions: Staphylococcus aureus, 1094, 18 h
Escherichia coli [6] = test: Antibacterial activity against Escherichia coli 700 expressing TolC after 18 hrs by broth dilution method; conditions: Escherichia coli, 700, 18 h
Klebsiella pneumoniae [7] = test: Antibacterial activity against Klebsiella pneumoniae ATCC 13882 after 18 hrs by broth dilution method; conditions: ATCC 13882, 18 h
Staphylococcus aureus [8] = test: Antibacterial activity against Staphylococcus aureus ATCC 25923 after 18 hrs by broth dilution method; conditions: ATCC 25923, 18 h
Enterococcus faecalis [9] = test: Antibacterial activity against vancomycin-resistant Enterococcus faecalis ATCC 51575 after 18 hrs by broth dilution method; conditions: ATCC 51575, 18 h
Bacillus anthracis = test: Antibacterial activity against Bacillus anthracis Sterne after 18 hrs by broth dilution method
Escherichia coli [10] = test: Antibacterial activity against TolC deficient Escherichia coli 701 after 18 hrs by broth dilution method; conditions: Escherichia coli, 701, 18 h
Enterococcus faecalis [11] = test: Antibacterial activity against Enterococcus faecalis ATCC 29212 after 18 hrs by broth dilution method; conditions: ATCC 29212, 18 h
Bacillus subtilis = test: Antibacterial activity against Bacillus subtilis BD54 after 18 hrs by broth dilution method; conditions: BD54, 18 h
Burkholderia cepacia [12] = test: Antibacterial activity against Burkholderia cepacia ATCC 39277 after 18 hrs by broth dilution method; conditions: ATCC 39277, 18 h
Pseudomonas aeruginosa [13] = test: Antibacterial activity against Pseudomonas aeruginosa PAO1 ATCC BAA-47 after 18 hrs by broth dilution method; conditions: PAO1 ATCC BAA-47, 18 h
Enterococcus faecalis [14] = test: Antibacterial activity against Enterococcus faecalis ATCC 29212 after 16 to 18 hrs by agar dilution method
Staphylococcus aureus [15] = test: Antibacterial activity against Staphylococcus aureus ATCC 25923 after 16 to 18 hrs by agar dilution method
Escherichia coli [16] = test: Antibacterial activity against Escherichia coli ATCC 29425 after 16 to 18 hrs by agar dilution method
Escherichia coli [17] = test: Antibacterial activity against Escherichia coli ATCC 29425 after 18 hrs by broth dilution method; conditions: ATCC 29425, 18 h

SMILES | MIC (Acinetobacter baumannii) | MIC (Pseudomonas aeruginosa [1]) | MIC [2] | MIC (Burkholderia cepacia [3]) | MIC (Klebsiella pneumoniae [4]) | MIC (Staphylococcus aureus [5]) | MIC (Escherichia coli [6]) | MIC (Klebsiella pneumoniae [7]) | MIC (Staphylococcus aureus [8]) | MIC (Enterococcus faecalis [9]) | MIC (Bacillus anthracis) | MIC (Escherichia coli [10]) | MIC (Enterococcus faecalis [11]) | MIC (Bacillus subtilis) | MIC (Burkholderia cepacia [12]) | MIC (Pseudomonas aeruginosa [13]) | MIC (Enterococcus faecalis [14]) | MIC (Staphylococcus aureus [15]) | MIC (Escherichia coli [16]) | MIC (Escherichia coli [17])
CC1CN(c2c(F)cc3c(=O)c(C(=O)O)cn(C4CC4)c3c2F)CCN1 (stereo not drawn) | 0.313 µg/mL (≈ 0.861 µM) | 0.039 µg/mL (≈ 0.107 µM) | 0.039 µg/mL (≈ 0.107 µM) | 0.235 µg/mL (≈ 0.647 µM) | 0.313 µg/mL (≈ 0.861 µM) | 10 µg/mL (≈ 27.5 µM) | ≤ 0.02 µg/mL | ≤ 0.02 µg/mL | 0.235 µg/mL (≈ 0.647 µM) | 0.625 µg/mL (≈ 1.72 µM) | 0.078 µg/mL (≈ 0.215 µM) | ≤ 0.02 µg/mL | 0.625 µg/mL (≈ 1.72 µM) | 0.078 µg/mL (≈ 0.215 µM) | 0.078 µg/mL (≈ 0.215 µM) | 1.25 µg/mL (≈ 3.44 µM) | – | – | – | –
O=CN1CCN(c2cc3c(cc2F)c(=O)ccn3C2CC2)CC1 | > 80 µg/mL | > 80 µg/mL | > 80 µg/mL | > 80 µg/mL | > 80 µg/mL | > 80 µg/mL | > 80 µg/mL | > 80 µg/mL | > 80 µg/mL | > 80 µg/mL | > 80 µg/mL | > 80 µg/mL | > 80 µg/mL | > 80 µg/mL | > 80 µg/mL | > 80 µg/mL | > 64 µg/mL | > 64 µg/mL | > 64 µg/mL | > 80 µg/mL
O=CN1CCN(c2cc3c(cc2F)c(=O)c(C(=O)O)cn3C2CC2)CC1 | 2.5 µg/mL (≈ 6.96 µM) | ≤ 0.078 µg/mL | 1.25 µg/mL (≈ 3.48 µM) | 1.25 µg/mL (≈ 3.48 µM) | 5 µg/mL (≈ 13.9 µM) | 40 µg/mL (≈ 111 µM) | 0.313 µg/mL (≈ 0.871 µM) | 0.156 µg/mL (≈ 0.434 µM) | 0.313 µg/mL (≈ 0.871 µM) | 2.5 µg/mL (≈ 6.96 µM) | 0.235 µg/mL (≈ 0.654 µM) | ≤ 0.078 µg/mL | 0.625 µg/mL (≈ 1.74 µM) | 0.117 µg/mL (≈ 0.326 µM) | 0.313 µg/mL (≈ 0.871 µM) | 10 µg/mL (≈ 27.8 µM) | 1 µg/mL (≈ 2.78 µM) | 0.5 µg/mL (≈ 1.39 µM) | 0.5 µg/mL (≈ 1.39 µM) | 0.5 µg/mL (≈ 1.39 µM)
CCn1ccc(=O)c2cc(F)c(N3CCN(C=O)CC3)cc21 | > 80 µg/mL | 80 µg/mL (≈ 264 µM) | > 80 µg/mL | > 80 µg/mL | > 80 µg/mL | > 80 µg/mL | 40 µg/mL (≈ 132 µM) | > 80 µg/mL | > 80 µg/mL | > 80 µg/mL | > 80 µg/mL | 40 µg/mL (≈ 132 µM) | > 80 µg/mL | > 80 µg/mL | > 80 µg/mL | > 80 µg/mL | > 64 µg/mL | > 64 µg/mL | > 64 µg/mL | 40 µg/mL (≈ 132 µM)
CCN1CCN(c2cc3c(cc2F)c(=O)ccn3C2CC2)CC1 | > 80 µg/mL | > 80 µg/mL | > 80 µg/mL | > 80 µg/mL | > 80 µg/mL | > 80 µg/mL | > 80 µg/mL | > 80 µg/mL | > 80 µg/mL | > 80 µg/mL | > 80 µg/mL | > 80 µg/mL | > 80 µg/mL | > 80 µg/mL | > 80 µg/mL | > 80 µg/mL | > 64 µg/mL | > 64 µg/mL | > 64 µg/mL | > 80 µg/mL
CC1CN(c2c(F)cc3c(=O)ccn(C4CC4)c3c2F)CCN1 (stereo not drawn) | > 80 µg/mL | 40 µg/mL (≈ 125 µM) | > 80 µg/mL | > 80 µg/mL | > 80 µg/mL | > 80 µg/mL | > 80 µg/mL | > 80 µg/mL | > 80 µg/mL | > 80 µg/mL | 80 µg/mL (≈ 251 µM) | 15 µg/mL (≈ 47 µM) | > 80 µg/mL | > 80 µg/mL | > 80 µg/mL | > 80 µg/mL | > 64 µg/mL | > 64 µg/mL | > 64 µg/mL | > 80 µg/mL
CCn1ccc(=O)c2cc(F)c(N3CCNCC3)cc21 | > 80 µg/mL | 40 µg/mL (≈ 145 µM) | > 80 µg/mL | > 80 µg/mL | > 80 µg/mL | > 80 µg/mL | 40 µg/mL (≈ 145 µM) | 40 µg/mL (≈ 145 µM) | > 80 µg/mL | > 80 µg/mL | 80 µg/mL (≈ 291 µM) | 5 µg/mL (≈ 18.2 µM) | > 80 µg/mL | 80 µg/mL (≈ 291 µM) | > 80 µg/mL | > 80 µg/mL | 32 µg/mL (≈ 116 µM) | > 64 µg/mL | 64 µg/mL (≈ 232 µM) | 40 µg/mL (≈ 145 µM)
O=c1ccn(C2CC2)c2cc(N3CCNCC3)c(F)cc12 | > 80 µg/mL | 80 µg/mL (≈ 278 µM) | > 80 µg/mL | > 80 µg/mL | > 80 µg/mL | > 80 µg/mL | > 80 µg/mL | > 80 µg/mL | > 80 µg/mL | > 80 µg/mL | > 80 µg/mL | > 80 µg/mL | > 80 µg/mL | > 80 µg/mL | > 80 µg/mL | > 80 µg/mL | > 64 µg/mL | > 64 µg/mL | > 64 µg/mL | > 80 µg/mL
O=C(O)c1cn(C2CC2)c2cc(N3CCNCC3)c(F)cc2c1=O [CIPROFLOXACIN] | 1.25 µg/mL (≈ 3.77 µM) | 0.02 µg/mL (≈ 0.0604 µM) | 0.156 µg/mL (≈ 0.471 µM) | 0.625 µg/mL (≈ 1.89 µM) | 0.313 µg/mL (≈ 0.945 µM) | 20 µg/mL (≈ 60.4 µM) | – | 0.039 µg/mL (≈ 0.118 µM) | 0.625 µg/mL (≈ 1.89 µM) | 0.625 µg/mL (≈ 1.89 µM) | – | – | 1.25 µg/mL (≈ 3.77 µM) | 0.156 µg/mL (≈ 0.471 µM) | 0.078 µg/mL (≈ 0.235 µM) | 0.313 µg/mL (≈ 0.945 µM) | 0.5 µg/mL (≈ 1.51 µM) | 0.5 µg/mL (≈ 1.51 µM) | < 0.06 µg/mL | < 0.02 µg/mL
CCN1CCN(c2cc3c(cc2F)c(=O)c(C(=O)O)cn3C2CC2)CC1 [ENROFLOXACIN] | 0.235 µg/mL (≈ 0.654 µM) | 0.078 µg/mL (≈ 0.217 µM) | 0.098 µg/mL (≈ 0.273 µM) | 0.625 µg/mL (≈ 1.74 µM) | 0.625 µg/mL (≈ 1.74 µM) | 5 µg/mL (≈ 13.9 µM) | 0.049 µg/mL (≈ 0.136 µM) | 0.098 µg/mL (≈ 0.273 µM) | 0.156 µg/mL (≈ 0.434 µM) | 0.625 µg/mL (≈ 1.74 µM) | 0.078 µg/mL (≈ 0.217 µM) | ≤ 0.01 µg/mL | 0.625 µg/mL (≈ 1.74 µM) | 0.078 µg/mL (≈ 0.217 µM) | 0.098 µg/mL (≈ 0.273 µM) | 4.4 µg/mL (≈ 12.2 µM) | 0.13 µg/mL (≈ 0.362 µM) | 0.13 µg/mL (≈ 0.362 µM) | < 0.06 µg/mL | 0.05 µg/mL (≈ 0.139 µM)
